From ChEMBL document CHEMBL3228010, “Potential antitumor agents. 29. Quantitative structure-activity relationships for the antileukemic bisquaternary ammonium heterocycles” (J Med Chem, 1979) come the findings set out here.

SMILES strings stand for the structures.

The species named for one series is Bos taurus. The experiment in a line: Displacement of ethidium from calf thymus DNA by fluorimetric method.
Another series deals with Mus musculus. Description: Toxicity in ip dosed C3H X DBA2 F1 hybrid mouse […] with mouse L1210 cells on day 0 and dosed once daily on days 1 to 5 measured after 50 days. Type of series: organism-based. The note with it: in vivo, 1200 h.
For series [1], the system named is L1210. Description: Antitumor activity against mouse L1210 cells […] in ip dosed C3H X DBA2 F1 hybrid mouse on day 0 and dosed at LD10 level once daily on days 1 to 5 assessed as increase in life span relative to control. Type of series: functional.
Series [2] is described as follows: Lipophilic-hydrophilic balance, Rm of the compound by partition chromatography. Type of series: physicochemical.
A short description of series [3]: Displacement of ethidium from poly[d(G-C)]-poly[d(G-C)] DNA (unknown origin) by fluorimetric method.
Series [4] deals with L1210. Description: Antitumor activity against mouse L1210 cells […] in ip dosed C3H X DBA2 F1 hybrid mouse on day 0 and dosed once daily on days 1 to 5 assessed as increase in life span relative to control. The format is functional.
Series [5] is described as follows: Displacement of ethidium from poly[d(A-T)]-poly[d(A-T)] DNA by fluorimetric method.

As to `C[n+]1cccc2cc(NC(=O)c3ccc(NC(=O)c4ccc(C(=O)Nc5ccc6c(ccc[n+]6C)c5)cc4)cc3)ccc21.Cc1ccc(S(=O)(=O)[O-])cc1.Cc1ccc(S(=O)(=O)[O-])cc1`, the C50 worked out at 0.37 µM in the series listed under Bos taurus, 0.36 µM in series [3] and 0.28 µM in series [5]. Also, the LD10 with Mus musculus came out at 100 mg/kg. Besides, in the series on L1210 [1], the “log(ILSmax)” value is 2.04. The Rm in series [2] was -0.7. Also, the D40 in the series on L1210 [4] was found to be 39 mg/kg.

As for `Cc1ccc(S(=O)(=O)[O-])cc1.Cc1ccc(S(=O)(=O)[O-])cc1.Cc1cccc2c(Nc3ccc(C(=O)Nc4ccc(Nc5cc[n+](C)cc5)cc4)cc3)cc[n+](C)c12`, the C50 in the series filed under Bos taurus was found to be 0.87 µM; in series [3] it was 2.01 µM; in series [5] it was 0.31 µM. For the same compound, the LD10 in the series on Mus musculus was 60 mg/kg. Also, the “log(ILSmax)” value in the series with L1210 [1] is 2.02. For the same compound, the Rm in series [2] is reported as 0.51. In addition, in the series on L1210 [4], the D40 worked out at 12 mg/kg.

In the case of `C[n+]1cccc(NC(=O)c2ccc(NC(=O)c3ccc(Nc4c5ccccc5[n+](C)c5ccc(N)cc45)cc3)cc2)c1.[Cl-].[Cl-]`, the C50 in the series listed under Bos taurus was 0.17 µM; in series [3], 0.25 µM; in series [5], 0.09 µM. In the series on Mus musculus, the LD10 amounted to 55 mg/kg. In the series on L1210 [1], the “log(ILSmax)” value turned out to be 2.36. In addition, the Rm in series [2] is reported as 0.44. In addition, the D40 in the series on L1210 [4] worked out at 9 mg/kg.

For `C[n+]1ccc(Nc2ccc(C(=O)Nc3ccc(Nc4cc[n+](C)c5ccccc45)cc3)cc2)cc1.Cc1ccc(S(=O)(=O)[O-])cc1.Cc1ccc(S(=O)(=O)[O-])cc1`, the C50 came out at 1.6 µM in the series filed under Bos taurus, 3 µM in series [3] and 0.21 µM in series [5]. Moreover, the LD10 with Mus musculus is 7.5 mg/kg. The “log(ILSmax)” value in the series with L1210 [1] came out at 2.29. In series [2], this compound returned a Rm of 0.27. Also, in the series with L1210 [4], the D40 turned out to be 2.2 mg/kg.

Consider `C[n+]1cccc2cc(NC(=O)c3ccc(C(=O)Nc4ccc(NC(=O)c5ccc6c(ccc[n+]6C)c5)cc4)cc3)ccc21.Cc1ccc(S(=O)(=O)[O-])cc1.Cc1ccc(S(=O)(=O)[O-])cc1`, for which the C50 in the series listed under Bos taurus was 0.3 µM; in series [3], 0.8 µM; in series [5], 0.35 µM. The LD10 with Mus musculus was 90 mg/kg. Also, the “log(ILSmax)” value with L1210 [1] worked out at 1.65. This compound also registered a Rm in series [2] of -0.57. Besides, the D40 in the series with L1210 [4] was 80 mg/kg.

`C/C(=N\NC(=N)N)c1ccc(NC(=O)c2ccc(C(=O)Nc3ccc(C(=O)Nc4ccc[n+](C)c4)cc3)cc2)cc1.Cc1ccc(S(=O)(=O)O)cc1.Cc1ccc(S(=O)(=O)[O-])cc1`: the C50 is 0.46 µM in the series listed under Bos taurus, 0.52 µM in series [3] and 0.3 µM in series [5]. This compound also had an LD10 in the series with Mus musculus of 20 mg/kg. For the same compound, in the series with L1210 [1], the “log(ILSmax)” value amounted to 1.93. The compound also gave a Rm in series [2] of -0.53. Further, the D40 with L1210 [4] amounted to 8.7 mg/kg.

As to `C[n+]1ccc(Nc2ccc(C(=O)Nc3ccc(Nc4cc[n+](C)c5cc(N)ccc45)cc3)cc2)cc1.Cc1ccc(S(=O)(=O)[O-])cc1.Cc1ccc(S(=O)(=O)[O-])cc1`, the C50 in the series filed under Bos taurus turned out to be 0.43 µM; in series [3], 1.04 µM; in series [5], 0.12 µM. Further, the LD10 with Mus musculus turned out to be 25 mg/kg. Further, the “log(ILSmax)” value in the series with L1210 [1] amounted to 2.34. In series [2], this compound came in with a Rm of -0.04. In the series with L1210 [4], the D40 came to 1.5 mg/kg.

As for `C[n+]1ccc(Nc2ccc(NC(=O)/C=C/c3ccc(Nc4cc[n+](C)c5ccc(N)cc45)cc3)cc2)cc1.Cc1ccc(S(=O)(=O)[O-])cc1.Cc1ccc(S(=O)(=O)[O-])cc1`, the C50 turned out to be 0.46 µM in the series filed under Bos taurus, 0.41 µM in series [3] and 0.09 µM in series [5]. In addition, the LD10 in the series with Mus musculus was found to be 40 mg/kg. Also, in the series on L1210 [1], the “log(ILSmax)” value is on record as 2.24. Besides, the Rm in series [2] stood at 0.03. Also, the D40 in the series on L1210 [4] is 1.6 mg/kg.
